Test results as given in patent publication EP0475531A1, “Benzoic acid phenylester compounds and elastase inhibiting compositions containing the same” (Asahi Kasei Kogyo Kabushiki Kaisha, priority 1990, dated 1992).

These molecules were tested against T1, human leukocyte elastase (Homo sapiens, UniProt P08246) (assay: in vitro human leukocyte elastase inhibiting activity (fluorogenic substrate, method of JP-A-2-101017 with slight modification)). Conditions: 50% inhibitory concentration; substrate methoxysuccinyl-Ala-Ala-Pro-Val-7-amido-4-methylcoumarin; 0.2 M Tris-hydrochloride buffer (0.02 M CaCl2, 0.005% Triton X-100), pH 7.2; compound and enzyme incubated at 25°C for 20 minutes; read-out: IC50.
T1 sequence (P08246 30-267): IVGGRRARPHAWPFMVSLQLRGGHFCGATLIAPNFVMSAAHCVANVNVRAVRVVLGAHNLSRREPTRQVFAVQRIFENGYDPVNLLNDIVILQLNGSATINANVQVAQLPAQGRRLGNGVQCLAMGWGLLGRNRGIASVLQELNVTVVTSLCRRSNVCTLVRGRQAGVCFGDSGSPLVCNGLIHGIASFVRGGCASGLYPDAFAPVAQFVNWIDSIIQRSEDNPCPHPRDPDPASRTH
Assay type: biochemical
Protocol: Thus, methoxysuccinyl-Ala-Ala-Pro-Val-7-amido-4-methylcoumarin was used as a substrate for human leukocyte elastase and the 50% inhibitory concentration (IC₅₀) was measured. The enzymatic reaction was carried out in 0.2 M Tris-hydrochloride buffer (containing 0.02 M CaCl₂ and 0.005% Triton X-100) at pH 7.2. Each mixture of test compound solution and the enzyme solution was incubated at 25°C for 20 minutes.

IC50 | Structure (SMILES)
37 nM | CC1(C(=O)Nc2ccc(C(=O)Oc3cc(Cl)cc(Cl)c3)cc2)CC1 [Compound 1, 3,5-dichlorophenyl 4-(1-methylcyclopropanecarbonylamino)benzoate]
7 nM | CCC(=O)Nc1ccc(C(=O)Oc2cc(Cl)cc(Cl)c2)cc1 [Compound 2, 3,5-dichlorophenyl 4-(propanoylamino)benzoate]
1.9 nM | CCCC(=O)Nc1ccc(C(=O)Oc2cc(Cl)cc(Cl)c2)cc1 [Compound 3, 3,5-dichlorophenyl 4-(butanoylamino)benzoate]
23 nM | CCCCC(=O)Nc1ccc(C(=O)Oc2cc(Cl)cc(Cl)c2)cc1 [Compound 4, 3,5-dichlorophenyl 4-(pentanoylamino)benzoate]
37 nM | CCCCCC(=O)Nc1ccc(C(=O)Oc2cc(Cl)cc(Cl)c2)cc1 [Compound 5, 3,5-dichlorophenyl 4-(hexanoylamino)benzoate]
110 nM | CCCCCCCC(=O)Nc1ccc(C(=O)Oc2cc(Cl)cc(Cl)c2)cc1 [Compound 6, 3,5-dichlorophenyl 4-(octanoylamino)benzoate]
4.1 nM | CC(C)C(=O)Nc1ccc(C(=O)Oc2cc(Cl)cc(Cl)c2)cc1 [Compound 7, 3,5-dichlorophenyl 4-(isobutanoylamino)benzoate]
6.4 nM | CC(C)(C)C(=O)Nc1ccc(C(=O)Oc2cc(Cl)cc(Cl)c2)cc1 [Compound 8, 3,5-dichlorophenyl 4-(pivaloylamino)benzoate]
5.3 nM | O=C(Cc1ccccc1)Nc1ccc(C(=O)Oc2cc(Cl)cc(Cl)c2)cc1 [Compound 9, 3,5-dichlorophenyl 4-(phenylacetylamino)benzoate]
28 nM | O=C(Oc1cc(Cl)cc(Cl)c1)c1ccc(NC(=O)C(Cl)(Cl)Cl)cc1 [Compound 10, 3,5-dichlorophenyl 4-(trichloroacetylamino)benzoate]
67 nM | O=C(Oc1cc(Cl)cc(Cl)c1)c1ccc(NC(=O)C(F)(F)F)cc1 [Compound 11, 3,5-dichlorophenyl 4-(trifluoroacetylamino)benzoate]
10 nM | O=C(Oc1cc(Cl)cc(Cl)c1)c1ccc(NC(=O)C(F)(F)C(F)(F)F)cc1 [Compound 12, 3,5-dichlorophenyl 4-(pentafluoropropanoylamino)benzoate]
9 nM | CC=CC(=O)Nc1ccc(C(=O)Oc2cc(Cl)cc(Cl)c2)cc1 [Compound 13, 3,5-dichlorophenyl 4-(2-butenoylamino)benzoate]
3.5 nM | C=C(C)C(=O)Nc1ccc(C(=O)Oc2cc(Cl)cc(Cl)c2)cc1 [Compound 14, 3,5-dichlorophenyl 4-(2-methylpropenoylamino)benzoate]
7.7 nM | O=C(Oc1cc(Cl)cc(Cl)c1)c1ccc(NC(=O)C2CC2)cc1 [Compound 15, 3,5-dichlorophenyl 4-(cyclopropanecarbonylamino)benzoate]
9.2 nM | O=C(Oc1cc(Cl)cc(Cl)c1)c1ccc(NC(=O)C2CCC2)cc1 [Compound 16, 3,5-dichlorophenyl 4-(cyclobutanecarbonylamino)benzoate]
10 nM | O=C(Oc1cc(Cl)cc(Cl)c1)c1ccc(NC(=O)C2CCCCC2)cc1 [Compound 18, 3,5-dichlorophenyl 4-(cyclohexanecarbonylamino)benzoate]
96 nM | CC(C)CC(=O)Nc1ccc(C(=O)Oc2cc(Cl)cc(Cl)c2)cc1 [Compound 19, 3,5-dichlorophenyl 4-(3-methylbutanoylamino)benzoate]
12 nM | CC(C(=O)Nc1ccc(C(=O)Oc2cc(Cl)cc(Cl)c2)cc1)c1ccccc1 (stereo not drawn) [Compound 20, 3,5-dichlorophenyl 4-(2-methyl-2-phenylacetylamino)benzoate]
140 nM | O=C(C=Cc1ccccc1)Nc1ccc(C(=O)Oc2cc(Cl)cc(Cl)c2)cc1 [Compound 21, 3,5-dichlorophenyl 4-(cinnamoylamino)benzoate]
23 nM | O=C(O)CCC(=O)Nc1ccc(C(=O)Oc2cc(Cl)cc(Cl)c2)cc1 [Compound 22, 3,5-dichlorophenyl 4-(succinylamino)benzoate]
